The LC50 is the concentration that kills 50% of the test population. Read a high LC50 as lower toxicity.

Experimental findings from ChEMBL document CHEMBL1158864, “Pyrrolizidine Alkaloids from Senecio r oseus and Senecio h elodes” (J Nat Prod, 1997) are described below.

Data set [1] has as its system Artemia salina. Description: (§1) Toxicity against Artemia salina. Format: organism-based. As to conditions: in vivo.
The subject of data set [2] is Escherichia coli. The experiment in a line: Antimicrobial activity against Escherichia coli ATCC 10536. Format: functional, organism-based.
The subject of data set [3] is Aspergillus niger. The experiment in a line: Antimicrobial activity against Aspergillus niger. Format: functional, organism-based.
The subject of data set [4] is Trichoderma viride. The experiment in a line: Antimicrobial activity against Trichoderma viride. Format: functional, organism-based.
Data set [5] can be described thus: as §1. Format: organism-based. As to conditions: in vivo.

Active and inactive are the calls of the source. The calls are words filed in the database; no cut-off is given here.

Compound `C[C@@H]1C[C@]2(C)CC(=O)O[C@@H]3CCN4CC=C(COC(=O)[C@@]1(C)O2)[C@H]34` [RETROISOSENINE] came in with an LC50 in data set [1] greater than 300 µg/mL.

`C[C@@H]1[C@@H](O)[C@]2(C)CC(=O)O[C@@H]3CCN4CC=C(COC(=O)[C@@]1(C)O2)[C@H]34`: the outcome in data set [2], in data set [3] and in data set [4] was inactive. This compound gave an LC50 in data set [5] greater than 300 µg/mL.

In data set [5], `C[C@@H]1C[C@]2(C)CC(=O)O[C@@H]3CCN4CC=C(COC(=O)[C@@]1(C)O2)[C@H]34` [RETROISOSENINE HYDRCHLORIDE] showed an LC50 greater than 300 µg/mL.

With `C[C@@H]1C[C@]2(C)CC(=O)O[C@@H]3CCN4CC[C@H](COC(=O)[C@@]1(C)O2)[C@H]34` [MULGEDIIFOLINE], the result in data set [2], in data set [3] and in data set [4] was inactive. In data set [5], the LC50 was greater than 300 µg/mL.

Take `C[C@@H]1C[C@]2(C)CC(=O)O[C@@H]3CCN4CC=C(COC(=O)[C@@]1(C)O2)[C@H]34`: the result in data set [2], in data set [3] and in data set [4] was inactive.
